Source: publication PMC9533326 (Cancer discovery, 2021)
Where two headings read alike, the source gives them in different places.

What was measured:
[1] = set-up: species or system human; conditions: in vivo; for Time post-dose at which Cmax was observed: human
[2] = for Dose reduction due to TEAEs: 2 patients each; for Discontinuation due to study drug related AEs: all patients; for Drug discontinued due to TEAEs: all patients (venetoclax 11, navitoclax 12 patients)
[3] = earlier trial of navitoclax in lymphoid malignancies; cited from earlier work
relapsed/refractory ALL = conditions: https://www.accessdata.fda.gov/drugsatfda_docs/label/2019/021877s010lbl.pdf; cited from earlier work

Row | Molecule | Time post-dose at which Cmax was observed [1] [h] | Dose reduction due to TEAEs [2] [%] | Discontinuation due to study drug related AEs [2] [%] | Drug discontinued due to TEAEs [2] [%] | Survival (median OS) reported in studies (relapsed/refractory ALL) [months] | further results
1 | CC1(C)CCC(c2ccc(Cl)cc2)=C(CN2CCN(c3ccc(C(=O)NS(=O)(=O)c4ccc(N[C@H](CCN5CCOCC5)CSc5ccccc5)c(S(=O)(=O)C(F)(F)F)c4)cc3)CC2)C1 [Navitoclax, navitoclax] | 4 to 8 | 4.3 | 10.6 | 25.5 | – | Impact on venetoclax pharmacokinetics [1]: no significant impact; Recommended phase II dose (RPTD) ([2]; patients weighing <45 kg, in combination with 400 mg adult-equivalent venetoclax): 25 mg; Recommended phase II dose (RPTD) ([2]; patients weighing ≥45 kg (adults), in combination with 400 mg venetoclax): 50 mg; Maximum tolerated dose [3]: 325 mg/day; Rate of grade 3/4 thrombocytopenia [3]: 52.7%
2 | CC1(C)CCC(CN2CCN(c3ccc(C(=O)NS(=O)(=O)c4ccc(NCC5CCOCC5)c([N+](=O)[O-])c4)c(Oc4cnc5[nH]ccc5c4)c3)CC2)=C(c2ccc(Cl)cc2)C1 [Venetoclax, venetoclax] | 6 to 8 | 4.3 | 12.8 | 23.4 | – | Recommended phase II dose ([2]; adult-equivalent, with navitoclax 50 mg (adults) or 25 mg (<45 kg)): 400 mg; Events of laboratory TLS ([2]; quick ramp-up to 400 mg venetoclax): 2 events
3 | COc1nc(N)nc2c1ncn2[C@@H]1O[C@H](CO)[C@@H](O)[C@@H]1O [nelarabine] | – | – | – | – | 4.7 | –
4 | blinatumomab: bispecific antibody | – | – | – | – | 7.7 | –
5 | inotuzumab ozogamicin | – | – | – | – | 7.7 | –
